Measurements published in article PMC9454848, “BMS-986158, a Small Molecule Inhibitor of the Bromodomain and Extraterminal Domain Proteins, in Patients with Selected Advanced Solid Tumors: Results from a Phase 1/2a Trial” (Cancers, 2022).
Several values for one entry are separate records, joined by “and”; a condition that tells them apart may be missing. Identical values can stand only once. Entries after “also recorded” stand apart in the source; their conditions may differ. Marks after values point to notes of the source that are not given here.

Assays:
advanced solid tumors = assay: Preliminary antitumor activity (RECIST 1.1 best overall response, ORR, PFS, OS); type: in vivo, human
Method: Best overall response was defined as a complete response (CR), partial response (PR), stable disease (SD), or progressive disease per RECIST 1.1 (solid tumors). […] Patients who had SD or better as their best overall response were classified as having achieved clinical benefit. These criteria must have been met at 1 time point and ≥1 subsequent time point(s) (the first of which was within 28 days of the initial time point). PFS was determined as the time from the first dose of study medication to the date of the first objective documentation of tumor progression or death due to any cause. All treated patients who received ≥1 dose of BMS-986158 were evaluated in the safety population. […] All treated patients with available and sufficient serum or plasma samples for the corresponding analytes were included in the PK analyses. […] ECG parameters were evaluated in a categorical analysis, and linear mixed-effects regression modeling was used to describe the quantitative relationship between ΔQTcF and time-matched serum concentrations of BMS-986158 or its metabolite at a single dose. Descriptive summary statistics, including means and 95% CIs, were calculated using the Clopper-Pearson method for ORR and Kaplan–Meier method for PFS and OS. During dose escalation, an mTPI design targeted a 27% DLT rate to guide escalation decisions and the MTD selection. In the dose-escalation segment, the target enrollment was up to 30 patients per schedule and 3–13 DLT-evaluable patients at a dose level, with an aim to determine the MTD. The totality of the data, including PK, pharmacodynamics, and patient overall safety, including at lower dose levels, was also used to select the RP2D.

[1] = system: patient-derived xenograft models; set-up: method as in PMID 34543572; conditions: mouse, low doses; 9 of 19 models; cited from earlier work
[2] = Schedule A (5 days on, 2 days off), n = 46
[3] = Schedule B (14 days on, 7 days off), n = 8
[4] = Schedule C (7 days on, 14 days off), n = 29

Cc1nnn(C)c1-c1cnc2c3ccc(C(C)(C)O)cc3n([C@H](c3ccccc3)C3CCOCC3)c2c1 [BMS-986158]
Patients with clinical benefit (advanced solid tumors; 4.5-mg dose on schedule A (9/14)): 64% | OS rate (advanced solid tumors; 6 months, Schedule A): 52.6% | OS rate (advanced solid tumors; 6 months, Schedule C): 48.4% | OS rate, n (95% CI) (advanced solid tumors; 6 months, Schedule A (5 days on, 2 days off), n = 46): 52.6% | OS rate, n (95% CI) (advanced solid tumors; 6 months, Schedule C (7 days on, 14 days off), n = 29): 48.4% | OS rate (advanced solid tumors; 12 months, Schedule A): 34.3% | OS rate (advanced solid tumors; 12 months, Schedule C): 30.8% | OS rate, n (95% CI) (advanced solid tumors; 12 months, Schedule A (5 days on, 2 days off), n = 46): 34.3% | OS rate, n (95% CI) (advanced solid tumors; 12 months, Schedule C (7 days on, 14 days off), n = 29): 30.8% | PFS rate, range depending on treatment schedule (advanced solid tumors; 24 weeks): 13.5–42.9% | PFS rate, n (95% CI) (advanced solid tumors; 24 weeks, Schedule A (5 days on, 2 days off), n = 46): 18.1% | PFS rate, n (95% CI) (advanced solid tumors; 24 weeks, Schedule B (14 days on, 7 days off), n = 8): 42.9% | PFS rate, n (95% CI) (advanced solid tumors; 24 weeks, Schedule C (7 days on, 14 days off), n = 29): 13.5% | PFS rate, range depending on treatment schedule (advanced solid tumors; 48 weeks): 6.8–14.3% | PFS rate, n (95% CI) (advanced solid tumors; 48 weeks, Schedule A (5 days on, 2 days off), n = 46): 10.3% | PFS rate, n (95% CI) (advanced solid tumors; 48 weeks, Schedule B (14 days on, 7 days off), n = 8): 14.3% | PFS rate, n (95% CI) (advanced solid tumors; 48 weeks, Schedule C (7 days on, 14 days off), n = 29): 6.8% | Patients with clinical benefit (advanced solid tumors; NUT carcinoma (4/7)): 57.1% | Best overall response unable to be determined (advanced solid tumors; Schedule A): 17.4% | Stable disease rate (advanced solid tumors; Schedule A): 26.1% | Best overall response by investigator: complete response (advanced solid tumors; [2]): 0 n (%) | Best overall response by investigator: partial response (advanced solid tumors; [2]): 2 (4.3) ^a n (%) | Best overall response by investigator: progressive disease (advanced solid tumors; [2]): 24 (52.2) n (%) | Best overall response by investigator: stable disease (advanced solid tumors; [2]): 12 (26.1) n (%) | Best overall response by investigator: unable to determine (advanced solid tumors; [2]): 8 (17.4) ^b n (%) | Median OS (95% CI) (advanced solid tumors; [2]): 7.52 (4.17–11.99) months | Median PFS (95% CI) (advanced solid tumors; [2]): 8.29 (7.14–9.71) weeks | ORR (95% CI) (advanced solid tumors; [2]): 2% | Patients with a partial response (advanced solid tumors; Schedule A, 4.5-mg starting dose (ovarian cancer, NUT carcinoma)): 2 patients | Patients achieving clinical benefit (advanced solid tumors; Schedule A, all doses): 30% and 30.4% | Best overall response unable to be determined (advanced solid tumors; Schedule B): 12.5% | Stable disease rate (advanced solid tumors; Schedule B): 37.5% | Best overall response by investigator: complete response (advanced solid tumors; [3]): 0 n (%) | Best overall response by investigator: partial response (advanced solid tumors; [3]): 0 n (%) | Best overall response by investigator: progressive disease (advanced solid tumors; [3]): 4 (50.0) n (%) | Best overall response by investigator: stable disease (advanced solid tumors; [3]): 3 (37.5) n (%) | Best overall response by investigator: unable to determine (advanced solid tumors; [3]): 1 (12.5) ^c n (%) | Median OS (95% CI) (advanced solid tumors; [3]): 9.23 (2.79–11.83) months | Median PFS (95% CI) (advanced solid tumors; [3]): 8.43 (5.57–40.14) weeks | ORR (95% CI) (advanced solid tumors; [3]): 0 (0.0–36.9) % | Best overall response unable to be determined (advanced solid tumors; Schedule C): 17.2% | Stable disease rate (advanced solid tumors; Schedule C): 31.0% | Best overall response by investigator: complete response (advanced solid tumors; [4]): 0 n (%) | Best overall response by investigator: partial response (advanced solid tumors; [4]): 0 n (%) | Best overall response by investigator: progressive disease (advanced solid tumors; [4]): 15 (51.7) n (%) | Best overall response by investigator: stable disease (advanced solid tumors; [4]): 9 (31.0) n (%) | Best overall response by investigator: unable to determine (advanced solid tumors; [4]): 5 (17.2) ^d n (%) | Median OS (95% CI) (advanced solid tumors; [4]): 5.32 (3.52–11.83) months | Median PFS (95% CI) (advanced solid tumors; [4]): 9.00 (7.86–13.29) weeks | ORR (95% CI) (advanced solid tumors; [4]): 0 (0.0–11.9) % | Patients with SD or better (advanced solid tumors; across treatment schedules and doses (n = 26)): 31.3% | Patients with clinical benefit (advanced solid tumors; adenoid cystic carcinoma (4/4)): 100% | Complete response (advanced solid tumors; all schedules): No patients experienced a CR | Tumor marker CA 125 level after treatment initiation (advanced solid tumors; one patient, ovarian cancer, 4.5 mg schedule A, 3032 U/mL prior to C1D1): decreased and remained stable; also recorded: decreased and stabilized | Duration of partial response on study treatment (advanced solid tumors; one patient, serous papillary ovarian cancer, 4.5 mg schedule A): 155 days | Reduction in tumor burden (advanced solid tumors; one patient, serous papillary ovarian cancer, 4.5 mg schedule A, PR at day 170): 35% | PFS, range depending on treatment schedule (advanced solid tumors; schedules A, B, C): 8.29–9.00 weeks | Progressive disease as best response, range across treatment schedules (advanced solid tumors; schedules A, B, C): 50.0–52.2% | Patients with clinical benefit (advanced solid tumors; uveal melanoma (3/5)): 60% | Patient-derived xenograft models with antitumor activity [1]: 47%
